Measured values as given in patent publication US20060063766A1, “Use of aryl- and heteroaryl-substituted tetrahydroisoquinolines to block reuptake of norepinephrine, dopamine, and serotonin” (priority 2004, published 2006).
Where a name gives a salt, the structure may show the parent alone.

Columns and labels:
[1] = biological target: T1, DAT (Homo sapiens, UniProt Q01959); test: biochemical; format: binding; conditions: for inhibition at 0.1 µM: read-out: % inhibition at 100 nM concentration of test compound, DAT
T1 construct: cDNAs containing the complete coding regions of each transporter were amplified by PCR from human brain libraries; expressed in transfected cells; host or cells: HEK293E
T1 sequence (Q01959 whole entry): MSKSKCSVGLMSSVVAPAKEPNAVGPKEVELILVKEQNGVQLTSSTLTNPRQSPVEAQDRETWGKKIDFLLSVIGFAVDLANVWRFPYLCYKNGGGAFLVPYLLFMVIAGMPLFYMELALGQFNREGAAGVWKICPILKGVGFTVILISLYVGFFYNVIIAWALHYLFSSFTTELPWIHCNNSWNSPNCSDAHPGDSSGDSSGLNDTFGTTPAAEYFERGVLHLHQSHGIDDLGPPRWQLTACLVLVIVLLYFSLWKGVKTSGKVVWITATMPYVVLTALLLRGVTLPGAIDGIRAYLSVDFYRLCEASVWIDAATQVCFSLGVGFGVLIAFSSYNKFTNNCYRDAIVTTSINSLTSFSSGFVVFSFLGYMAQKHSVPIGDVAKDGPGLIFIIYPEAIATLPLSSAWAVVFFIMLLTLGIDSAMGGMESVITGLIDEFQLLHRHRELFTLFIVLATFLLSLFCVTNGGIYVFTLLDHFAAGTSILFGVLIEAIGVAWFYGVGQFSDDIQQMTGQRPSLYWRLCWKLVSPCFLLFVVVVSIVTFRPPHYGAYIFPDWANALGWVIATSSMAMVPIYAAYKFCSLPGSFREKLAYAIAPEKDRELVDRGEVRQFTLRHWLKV

[2] = biological target: SERT (Homo sapiens, UniProt P31645); test: biochemical; conditions: for inhibition at 0.1 µM: read-out: % inhibition at 100 nM concentration of test compound, SERT
Sequence of SERT (P31645 whole entry): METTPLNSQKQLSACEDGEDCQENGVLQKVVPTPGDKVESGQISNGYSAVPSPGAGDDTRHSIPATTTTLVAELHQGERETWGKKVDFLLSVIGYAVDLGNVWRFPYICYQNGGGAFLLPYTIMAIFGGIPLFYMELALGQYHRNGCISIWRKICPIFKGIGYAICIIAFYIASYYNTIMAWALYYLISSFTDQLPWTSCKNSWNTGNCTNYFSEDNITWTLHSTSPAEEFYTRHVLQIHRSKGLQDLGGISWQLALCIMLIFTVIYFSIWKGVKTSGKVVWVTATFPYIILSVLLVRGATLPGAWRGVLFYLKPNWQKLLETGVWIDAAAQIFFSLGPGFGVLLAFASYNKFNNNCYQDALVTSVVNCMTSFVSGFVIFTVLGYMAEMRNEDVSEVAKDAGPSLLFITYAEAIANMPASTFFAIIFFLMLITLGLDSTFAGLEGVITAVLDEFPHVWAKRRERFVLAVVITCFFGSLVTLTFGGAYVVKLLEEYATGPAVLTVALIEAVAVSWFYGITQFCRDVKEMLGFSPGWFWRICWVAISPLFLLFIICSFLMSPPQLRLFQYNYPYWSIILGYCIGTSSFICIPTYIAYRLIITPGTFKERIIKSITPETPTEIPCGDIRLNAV

| melting point [°C] | SMILES | other results |
| --- | --- | --- |
| 210 to 214 | Cc1cccc2c1CN(C)CC2c1ccc2ccccc2c1 (stereo not shown) (as salt: hydrochloride) | – |
| – | CN1Cc2cc(-c3cnccn3)ccc2C(c2cc3ccccc3s2)C1 (racemic) [Example 71, (±)-4-(benzo[b]thiophen-2-yl)-2-methyl-7-(pyrazin-2-yl)-1,2,3,4-tetrahydroisoquinoline] | inhibition at 0.1 µM [1]: 33%; inhibition at 0.1 µM [2]: 91% |
| 122 to 124 | CN1Cc2cc(-c3cccnn3)ccc2C(c2ccc3sccc3c2)C1 (single isomer, unassigned; (+)) (as salt: fumarate) [Example 97, (+)-4-benzo[b]thiophen-5-yl-2-methyl-7-pyridazin-3-yl-1,2,3,4-tetrahydroisoquinoline] | – |
| 94 to 97 | CN1Cc2cc(-c3cccnn3)ccc2C(c2cccc3sccc23)C1 (racemic) (as salt: maleate) | – |
| 92 to 95 | Cc1noc(C)c1-c1ccc2c(c1)CN(C)CC2c1cc2ccccc2s1 (racemic) (as salt: maleate) | – |
| 91 to 94 | CN1Cc2cc(C#N)ccc2C(c2cc3ccccc3s2)C1 (stereo not drawn) (as salt: maleate) [Example 79 (+)] | – |
| 123 to 125 | CN(C)Cc1ccc2c(c1)CN(C)CC2c1ccc2sccc2c1 (racemic) (as salt: fumarate) | – |
| 103 to 107 | CN1Cc2cc(N3CCOCC3)ccc2C(c2cccc3sccc23)C1 (racemic) (as salt: maleate) | – |
| – | Cc1csc(C2CN(C)Cc3ccccc32)c1 (racemic) [4-methyl-thiophen-2-yl, reference compound] | Ki [1]: 2250 nM; Ki [2]: 3170 nM |
| – | Cc1cccc2c1C(c1ccc3ccccc3c1)CN(C)C2 (stereo not shown) [Example 56, 2,5-dimethyl-4-(naphthalen-2-yl)-1,2,3,4-tetrahydroisoquinoline] | Ki [2]: 3.4 nM |
| – | CCN1Cc2ccccc2C(c2ccc3cn[nH]c3c2)C1 (single isomer, unassigned; (+)) [Example 130, (+)-4-(1H-Indazol-6-yl)-2-ethyl-1,2,3,4-tetrahydroisoquinoline, maleate salt] | Ki [1]: 105 nM; Ki [2]: 22.5 nM |
| 228 to 230 | CN1Cc2ccccc2C(c2cccc3ccsc23)C1 (racemic) (as salt: salt) | – |
| 81 to 85 | CN1Cc2ccccc2C(c2ccc3c(ccn3Cc3ccccc3)c2)C1 (racemic) (as salt: maleate) | – |
| – | COc1c(C2CN(C)Cc3ccccc32)ccc2sccc12 (single isomer, unassigned) [Example 82] | Ki [1]: > 1000 nM; Ki [2]: 4.3 nM |
| 80 to 82 | CN1Cc2cc(CN3CCOCC3)ccc2C(c2cc3ccccc3s2)C1 (single isomer, unassigned) (as salt: maleate) | – |
| – | COc1cccc2cc(C3CN(C)Cc4ccccc43)oc12 (single isomer, unassigned) [Example 11] | Ki [1]: > 300 nM; Ki [2]: 26.8 nM |
| – | CN1Cc2ccccc2C(c2cccs2)C1 (racemic) [thiophen-2-yl, reference compound] | Ki [1]: 5990 nM; Ki [2]: 2450 nM |
| 91 to 92 | CCN1Cc2ccccc2C(c2ccc3sccc3c2OC)C1 (stereo not shown) (as salt: fumarate) | – |
| 184 to 187 | CN1Cc2ccccc2C(C2=Cc3ccccc3C2)C1 (stereo not shown) (as salt: maleate) | – |
| 213 to 215 | CN1Cc2ccccc2C(c2ccc3sccc3c2O)C1 (stereo not drawn) (as salt: fumarate) [Example 88 (+)] | – |
| 103 to 106 | CN1Cc2cc(-c3ncccn3)ccc2C(c2cc3ccccc3s2)C1 (racemic) (as salt: maleate) | – |
| 182 to 186 | COc1c(-c2cccnn2)ccc2c1CN(C)CC2c1ccc2ccccc2c1.O=C(O)/C=C/C(=O)O (racemic) | – |

| melting point [°C] | SMILES | other results |
| --- | --- | --- |
| 83 to 88 | CN1Cc2ccccc2C(c2ccc3[nH]ncc3c2)C1.O=C(O)/C=C/C(=O)O (stereo not shown) | – |
| 197 to 199 | COc1cccc2c1CN(C)CC2c1ccc2sccc2c1 (racemic) (as salt: fumarate) | – |
| 148 to 153 | CN1Cc2c(cccc2N2CCOCC2)C(c2ccc3sccc3c2)C1.O=C(O)/C=C/C(=O)O (racemic) | – |
| 158 to 159 | CCN1Cc2ccccc2C(c2ccc3sccc3c2O)C1 (stereo not drawn) (as salt: fumarate) [Example 89 (+)] | – |
| – | Cc1noc(C)c1-c1ccc2c(c1)CN(C)CC2c1ccc2ccccc2c1 (racemic) [Example 142, (±)-7-(3,5-dimethyl-isoxazol-4-yl)-2-methyl-4-napthalen-2-yl-1,2,3,4-tetrahydroisoquinoline, maleate salt] | Ki [1]: 104 nM; Ki [2]: 5.2 nM |
| – | CN1Cc2cc(-c3cncnc3)ccc2C(c2cc3ccccc3s2)C1 (racemic) [Example 73, (±)-4-(benzo[b]thiophen-2-yl)-2-methyl-7-(pyrimidin-5-yl)-1,2,3,4-tetrahydroisoquinoline] | inhibition at 0.1 µM [1]: 39%; inhibition at 0.1 µM [2]: 93% |
| 86 to 88 | CN1Cc2cc(-c3cccnn3)ccc2C(c2ccc3ccccc3c2)C1 (single isomer, unassigned; (+)) (as salt: maleate) [Example 137, (+)-2-methyl-4-napthalen-2-yl-7-pyridazin-3-yl-1,2,3,4-tetrahydroisoquinoline, maleate salt] | – |
| 142 to 145 | CN1Cc2cc(N3CCOCC3)ccc2C(c2cc3ccccc3s2)C1 (stereo not shown) (as salt: maleate) | – |
| – | CN1Cc2ccccc2C(c2cc(Cl)c3[nH]ncc3c2)C1 (single isomer, unassigned; (-)) [Example 125, (−)-4-(7-chloro-1H-indazol-5-yl)-2-methyl-1,2,3,4-tetrahydoisoquinoline, maleate salt] | Ki [1]: 11.5 nM; Ki [2]: 21.3 nM |
| 179 to 181 | CC1c2ccccc2C(c2ccc3sccc3c2)CN1C (racemic) (as salt: fumarate) | – |
| 80 to 84 | CN1Cc2cc(C#N)ccc2C(c2cc3ccccc3s2)C1 (stereo not drawn) (as salt: maleate) [Example 79 (−)] | – |
| 105 to 108 | CN1Cc2cc(N3CCCC3)ccc2C(c2cc3ccccc3s2)C1 (racemic) (as salt: maleate) | – |
| 94 to 98 | CN1Cc2ccccc2C(c2ccc3c(Cl)c[nH]c3c2)C1 (racemic) (as salt: maleate) | – |
| 110 to 117 | CN1Cc2ccccc2C(c2ccc3cn[nH]c3c2)C1.O=C(O)/C=C/C(=O)O (stereo not shown) | – |
| – | Cc1noc(C)c1C1CN(C)Cc2ccccc21 (racemic) [4-(3,5-dimethyl-isoxazol-4-yl, reference compound] | Ki [1]: 128000 nM; Ki [2]: 1400 nM |
| 214 to 216 | CN1Cc2ccccc2C(c2ccc3sccc3c2O)C1 (stereo not drawn) (as salt: fumarate) [Example 88 (−)] | – |
| 167 to 169 | CN1Cc2ccccc2C(c2ccc3[nH]ncc3c2)C1 (stereo not shown) | – |
| 98 to 99 | COc1c(C2CN(C)Cc3ccccc32)ccc2ccsc12 (stereo not shown) (as salt: fumarate) | – |
| 99 to 102 | CN1Cc2cc(-c3cccnn3)ccc2C(c2cc3ccccc3s2)C1 (stereo not shown) (as salt: maleate) | – |
| 116 to 119 | CN1Cc2cc(-c3ccc(N(C)C)nn3)ccc2C(c2ccc3sccc3c2)C1 (stereo not shown) (as salt: fumarate) | – |
| 112 to 114 | CN1Cc2cc(C#N)ccc2C(c2ccc3sccc3c2)C1 (stereo not shown) (as salt: fumarate) | – |
| 155 to 157 | CCN1Cc2ccccc2C(c2ccc3sccc3c2O)C1 (stereo not drawn) (as salt: fumarate) [Example 89 (−)] | – |

| SMILES | melting point [°C] | other results |
| --- | --- | --- |
| CN1Cc2cc(-c3cncnc3)ccc2C(c2cc3ccccc3s2)C1 (racemic) (as salt: maleate) [Example 73, (±)-4-(benzo[b]thiophen-2-yl)-2-methyl-7-(pyrimidin-5-yl)-1,2,3,4-tetrahydroisoquinoline] | 103 to 107 | – |
| CN1Cc2ccccc2C(c2nc3ccccc3o2)C1.O=C(O)/C=C\C(=O)O (racemic) | 135 to 140 | – |
| Cc1noc(C)c1-c1ccc2c(c1)CN(C)CC2c1ccc2ccccc2c1 (racemic) (as salt: maleate) [Example 142, (±)-7-(3,5-dimethyl-isoxazol-4-yl)-2-methyl-4-napthalen-2-yl-1,2,3,4-tetrahydroisoquinoline, maleate salt] | 88 to 90 | – |
| CN1Cc2ccccc2C(c2ccc3c(cnn3Cc3cccc(C#N)c3)c2)C1.O=C(O)/C=C\C(=O)O (stereo not shown) | 83 to 88 | – |
| COc1c(C2CN(C)Cc3ccccc32)ccc2sccc12 (stereo not drawn) (as salt: fumarate) [82 (+)] | 97 to 99 | – |
| CN1Cc2ccccc2C(c2cc(Cl)c3[nH]ncc3c2)C1 (single isomer, unassigned; (-)) (as salt: maleate) [Example 125, (−)-4-(7-chloro-1H-indazol-5-yl)-2-methyl-1,2,3,4-tetrahydoisoquinoline, maleate salt] | 104 to 110 | – |
| CN1Cc2ccccc2C(c2ccc3sncc3c2)C1.O=C(O)/C=C\C(=O)O (stereo not drawn) [Example 135 (−)-enantiomer] | 127 to 129 | – |
| CN1Cc2cc(-c3cnccn3)ccc2C(c2cc3ccccc3s2)C1 (racemic) (as salt: maleate) [Example 71, (±)-4-(benzo[b]thiophen-2-yl)-2-methyl-7-(pyrazin-2-yl)-1,2,3,4-tetrahydroisoquinoline] | 102 to 105 | – |
| CN1Cc2cc(-c3ncccn3)ccc2C(c2ccc3ccccc3c2)C1.O=C(O)/C=C\C(=O)O (stereo not shown) [Example 140] | 84 to 85 | – |
| COc1c(C2CN(C)Cc3ccccc32)ccc2sccc12 (stereo not drawn) (as salt: fumarate) [Example 82 (−)] | 94 to 96 | – |
| COc1c(O)ccc2c1CN(C)CC2c1ccc2ccccc2c1.O=C(O)/C=C\C(=O)O (stereo not shown) | 85 to 90 | – |
| CN1Cc2cc(-c3ncccn3)ccc2C(c2ccc3ccccc3c2)C1.O=C(O)/C=C\C(=O)O (stereo not drawn) [Example 140 (−)-enantiomer] | 86 to 88 | – |
| CN1Cc2ccccc2C(c2nc3ccccc3s2)C1.O=C(O)/C=C\C(=O)O (racemic) | 165 to 170 | – |
